For 31 compounds, IC50 results are on record in US12492210B2, “Tricyclic compounds and their use” (HUTCHISON MEDIPHARMA LIMITED, priority 2019, dated 2025).

The target of one experiment is T1, MAPK1(ERK2) enzyme (Homo sapiens, UniProt P28482).
T1 construct: purchased Invitrogen PV3313
Put plainly: Z-Lyte Kinase Assay of ERK2. The class given is biochemical. As to conditions: read-out: Example 18 IC50. In short, it runs like this:
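FRET-based Z-LYTE assay using ERK2 kinase with Ser/Thr3 peptide; compound tested at 0.00046–1 μM final in 2% DMSO. Kinase reaction ran 1 h at 25-30° C, followed by 1 h development. The coumarin/fluorescein emission ratio (445/520 nm) gave % phosphorylation, and IC50 was fitted from inhibition relative to uninhibited control.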

Experiment [1] concerns p-RSK (Thr359) in colo205 cells. The experiment is described as follows: p-RSK (Thr359) Acumen Assay in Colo205. The class given is cell-based. Particulars: Homo sapiens, COLO 205, 1 hour compound incubation, read-out: Example 19 IC50. In short, it runs like this:
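Colo205 cells (4000/well, seeded overnight in 10% FBS) were exposed 1 hour at 37° C to compound added from a 3–0.001 μM dilution series in 5% DMSO. Cells were then fixed, permeabilised and immunostained for p-RSK Thr359, with PI counterstain. Acumen cytometry gave the percentage of positive cells, normalised to untreated wells and 3 uM GDC0994 wells, for the IC50 fit.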

Where only a bound is given, the exact number is not on record here.

T1 sequence (P28482 whole entry): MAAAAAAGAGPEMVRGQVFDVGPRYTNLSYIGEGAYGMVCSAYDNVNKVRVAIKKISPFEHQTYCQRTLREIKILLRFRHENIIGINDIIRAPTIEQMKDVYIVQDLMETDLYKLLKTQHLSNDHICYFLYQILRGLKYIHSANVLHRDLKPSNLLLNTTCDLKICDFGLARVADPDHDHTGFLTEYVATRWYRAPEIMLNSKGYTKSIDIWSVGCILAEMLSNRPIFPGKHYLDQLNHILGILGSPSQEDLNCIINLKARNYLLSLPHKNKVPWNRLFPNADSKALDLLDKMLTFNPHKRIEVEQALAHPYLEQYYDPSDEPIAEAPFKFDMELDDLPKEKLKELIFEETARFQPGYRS

Regarding `Cn1nccc1Nc1cc(-c2cc3n(c2)CC(CO)Cn2c-3nnc2C2(C(F)(F)F)CCC2)c(Cl)cn1` (centres unmarked) [Compound 299, (10-(5-chloro-2-((1-methyl-1H-pyrazol-5-yl)amino)pyridin-4-yl)-3-(1-(trifluoromethyl)cyclobutyl)-6,7-dihydro-5H-pyrrolo[1,2-a][1,2,4]triazolo[3,4-c][1,4]diazepin-6-yl)methanol], the IC50 at MAPK1(ERK2) enzyme is at most 5 nM; in experiment [1] it was at most 100 nM.
Regarding `Cn1nccc1Nc1cc(-c2cc3n(c2)C[C@H](F)Cn2c-3nnc2C2(C(F)(F)F)CCC2)c(F)cn1` [Compound 85], the IC50 on MAPK1(ERK2) enzyme is at most 5 nM; in experiment [1], at most 100 nM.
Consider `C[C@H]1Cn2cc(-c3ccnc(Nc4ccnn4C(F)F)n3)nc2-c2nnc(C(F)(F)c3ccccc3Cl)n21` [Compound 227], for which the IC50 at MAPK1(ERK2) enzyme is at most 5 nM; in experiment [1], at most 100 nM.
Turning to `Cc1cnc(Nc2ccnn2C)cc1-c1cc2n(c1)CC1(CC1)Cn1c-2nnc1C(F)(F)C(F)F` [Compound 66], the IC50 on MAPK1(ERK2) enzyme is at most 5 nM; in experiment [1] it was at most 100 nM.
As to `Cn1nccc1Nc1cc(-c2cc3n(c2)CC2(CC2)Cn2c(CCC(F)(F)F)nnc2-3)c(Cl)cn1` [Compound 254], the values for the IC50 (at MAPK1(ERK2) enzyme; in experiment [1]) were at most 5 nM and at most 100 nM, respectively.
For the compound `Cn1nccc1Nc1cc(-c2cc3n(c2)CCCn2c-3nnc2C2(C(F)(F)F)CC2)c(Cl)cn1` [Compound 21], the half-maximal inhibitory concentration (IC50) on MAPK1(ERK2) enzyme was at most 5 nM; in experiment [1], above 100 nM.
The like results for `Cc1cnc(Nc2ccnn2C)nc1-c1cn2c(n1)-c1nnc(C(F)(F)c3ccccc3Cl)n1[C@@H](CF)C2` [Compound 225] were, in that order, at most 5 nM and at most 100 nM.
The corresponding values for `Cc1cnc(Nc2ccnn2C)nc1-c1cc2n(c1)C[C@H](CF)n1c-2nnc1C(F)(F)c1ccccc1F` [Compound 131] are at most 5 nM and at most 100 nM.
Turning to `Cc1cnc(Nc2ccnn2C)cc1-c1cc2n(c1)C[C@H](CF)n1c-2nnc1C(F)(F)c1cccc(F)c1F` [Compound 180], the figures for the IC50 (on MAPK1(ERK2) enzyme; in experiment [1]) were above 10 nM and at most 100 nM, respectively.
Take `Cc1cnc(Nc2ccnn2C)cc1-c1cc2n(c1)C[C@H](CF)n1c-2nnc1C1(C(F)(F)F)CCC1` [Compound 82]: the figures for the IC50 (on MAPK1(ERK2) enzyme; in experiment [1]) were at most 5 nM and at most 100 nM, respectively.
The like results for `Cn1nccc1Nc1cc(-c2cc3n(c2)C[C@H](CF)n2c-3nnc2C(F)(F)c2ncco2)c(Cl)cn1` [Compound 110] were, in that order, at most 5 nM and above 100 nM.
`Cn1nccc1Nc1cc(-c2cc3n(c2)C[C@H](C(F)F)n2c-3nnc2C(F)(F)c2ccccc2F)c(Cl)cn1` [Compound 208]: the IC50 at MAPK1(ERK2) enzyme was above 10 nM; in experiment [1] it was at most 100 nM.
For the compound `Cn1nccc1Nc1nccc(-c2cn3c(c2Cl)-c2nnc(Cc4ccccc4F)n2CCC3)n1` [Compound 245], the IC50 on MAPK1(ERK2) enzyme is at most 5 nM; in experiment [1] it was at most 100 nM.
`Cn1nccc1Nc1cc(-c2cc3n(c2)C[C@H](O)Cn2c-3nnc2C2(C(F)(F)F)CCC2)c(Cl)cn1` [Compound 215, (S)-10-(5-chloro-2-((1-methyl-1H-pyrazol-5-yl)amino)pyridin-4-yl)-3-(1-(trifluoromethyl)cyclobutyl)-6,7-dihydro-5H-pyrrolo[1,2-a][1,2,4]triazolo[3,4-c][1,4]diazepin-6-ol]: the IC50 was at most 5 nM on MAPK1(ERK2) enzyme and at most 100 nM in experiment [1].
Turning to `CO[C@H]1Cn2cc(-c3cc(Nc4ccnn4C)ncc3Cl)cc2-c2nnc(C3(C(F)(F)F)CCC3)n2C1` [Compound 165], the values for the IC50 (at MAPK1(ERK2) enzyme; in experiment [1]) were 5 to 10 nM and at most 100 nM, respectively.
Consider `COc1cnc(Nc2ccnn2C)cc1-c1cc2n(c1)CC(F)(F)Cn1c-2nnc1C1(C(F)(F)F)CCC1` [Compound 214], for which the figures for the IC50 (at MAPK1(ERK2) enzyme; in experiment [1]) were 5 to 10 nM and above 100 nM, respectively.
Regarding `Cn1nccc1Nc1cc(-c2cc3n(c2)[C@H]2CC[C@H](C2)n2c-3nnc2C2(C(F)(F)F)CCC2)c(Cl)cn1` [Compound 267], the IC50 at MAPK1(ERK2) enzyme is above 10 nM; in experiment [1], above 100 nM.
As to `COC1(c2nnc3n2[C@@H](CF)Cn2cc(-c4cc(Nc5ccnn5C)ncc4Cl)cc2-3)CCC1` [Compound 64], the IC50 on MAPK1(ERK2) enzyme was at most 5 nM; in experiment [1], above 100 nM.
The like results for `Cn1nccc1Nc1cc(-c2cc3n(c2)CCCn2c-3nnc2N2CCc3ccccc32)c(Cl)cn1` [Compound 53, 5-Chloro-4-(3-(indolin-1-yl)-6,7-dihydro-5H-pyrrolo[1,2-a][1,2,4]triazolo[3,4-c][1,4]diazepin-10-yl)-N-(1-methyl-1H-pyrazol-5-yl)pyridin-2-amine] were, in that order, 5 to 10 nM and above 100 nM.
Take `Cn1nccc1Nc1cc(-c2cc3n(c2)CC2(CC2)Cn2c-3nnc2C2(C(C)(F)F)CCC2)c(Cl)cn1` [Compound 136]: the IC50 on MAPK1(ERK2) enzyme was above 10 nM; in experiment [1], at most 100 nM.
Turning to `Cc1cnc(Nc2ccnn2C)cc1-c1cc2n(c1)C[C@H](CF)n1c-2nnc1C(F)(F)c1ccccc1Cl` [Compound 172], the IC50 is 5 to 10 nM on MAPK1(ERK2) enzyme and at most 100 nM in experiment [1].
The corresponding values for `Cc1cnc(Nc2ccnn2CC(F)F)nc1-c1cc2n(c1)C[C@H](C)n1c-2nnc1C(F)(F)c1ccccc1F` [Compound 298] are above 10 nM and at most 100 nM.
With `Cn1nccc1Nc1cc(-c2cc3n(c2)C[C@@H](O)Cn2c-3nnc2C2(C(F)(F)F)CCC2)c(Cl)cn1` [Compound 216], the IC50 on MAPK1(ERK2) enzyme was at most 5 nM; in experiment [1] it was at most 100 nM.
For `Cc1cnc(Nc2ccnn2C)cc1-c1cc2n(c1)C[C@H](CF)n1c-2nnc1C(F)(F)n1ccccc1=O` [Compound 124], the IC50 was at most 5 nM at MAPK1(ERK2) enzyme and at most 100 nM in experiment [1].
The like results for `Cc1cnc(Nc2ccnn2C)cc1-c1cc2n(c1)C[C@H](CF)n1c-2nnc1C(F)(F)c1c(F)cccc1F` [Compound 185] were, in that order, above 10 nM and at most 100 nM.
Regarding `COC[C@H]1Cn2cc(-c3nc(Nc4ccnn4C)ncc3C)nc2-c2nnc(C(F)(F)c3ccccc3F)n21` [Compound 223], the IC50 at MAPK1(ERK2) enzyme was at most 5 nM; in experiment [1] it was at most 100 nM.
As to `Cn1nccc1Nc1cc(-c2cc3n(c2)C[C@H](CF)n2c-3nnc2C(F)(F)c2ccccc2Cl)c(F)cn1` [Compound 192], the IC50 is above 10 nM on MAPK1(ERK2) enzyme and at most 100 nM in experiment [1].
As to `Cc1cnc(Nc2ccnn2C)cc1-c1cc2n(c1)C[C@H](CF)n1c-2nnc1C(F)(F)c1ccccc1` [Compound 86], the IC50 on MAPK1(ERK2) enzyme is 5 to 10 nM; in experiment [1], at most 100 nM.
For the compound `Cc1nonc1Cc1nnc2n1CCCn1cc(-c3cc(Nc4ccnn4C)ncc3Cl)cc1-2` [Compound 10], the IC50 on MAPK1(ERK2) enzyme was at most 5 nM; in experiment [1], above 100 nM.
With `COC[C@H]1Cn2cc(-c3nc(Nc4ccnn4C)ncc3C)cc2-c2nnc(C(F)(F)c3ccccc3Cl)n21` [Compound 202], the IC50 is 5 to 10 nM at MAPK1(ERK2) enzyme and at most 100 nM in experiment [1].
Turning to `Cc1nonc1C(F)(F)c1nnc2n1[C@@H](CF)Cn1cc(-c3cc(Nc4ccnn4C)ncc3Cl)cc1-2` [Compound 158], the IC50 at MAPK1(ERK2) enzyme was 5 to 10 nM; in experiment [1], at most 100 nM.

Usually IC50 stands for the concentration that inhibits the measured activity by half.
